Assay results published in PubChem BioAssay (NCI).
“And” between values parts separate entries of the source, which are not always exact repeats. Equal entries are not always repeated.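 Briefly, cells in 96-well plates were exposed to five compound concentrations for 48 h, and endpoints were estimated by linear interpolation. GI50 is the concentration that inhibits growth by half. At the TGI there is no net growth.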

Experiments:
Assay in all cases: growth of human tumour cells (NCI), 48 h
LOX IMVI melanoma = test system: LOX IMVI melanoma
SF-539 CNS = test system: SF-539 CNS
HT29 colon = test system: HT29 colon
SF-268 CNS = test system: SF-268 CNS
SNB-19 CNS = test system: SNB-19 CNS
CAKI-1 renal = test system: CAKI-1 renal
HCT-116 colon = test system: HCT-116 colon
HL-60(TB) leukemia = test system: HL-60(TB) leukemia
SNB-75 CNS = test system: SNB-75 CNS
RPMI-8226 leukemia = test system: RPMI-8226 leukemia

Structure (SMILES) | TGI (LOX IMVI melanoma) | TGI (SF-539 CNS) [µM] | TGI (HT29 colon) [µM] | TGI (SF-268 CNS) | TGI (SNB-19 CNS) [µM] | TGI (CAKI-1 renal) [µM] | TGI (HCT-116 colon) | TGI (HL-60(TB) leukemia) [µM] | GI50 (LOX IMVI melanoma) [µM] | GI50 (SF-539 CNS) [µM] | GI50 (HT29 colon) [µM] | GI50 (SF-268 CNS) [µM] | GI50 (SNB-19 CNS) [µM] | GI50 (CAKI-1 renal) [µM] | GI50 (SNB-75 CNS) [µM] | TGI (SNB-75 CNS) [µM] | GI50 (HCT-116 colon) [µM] | GI50 (RPMI-8226 leukemia) [µM] | TGI (RPMI-8226 leukemia) | GI50 (HL-60(TB) leukemia) [µM]
COc1ccc(-c2cc(=O)c3c(O)c(OC)c(OC)c(OC)c3o2)cc1OC | > 100 µM | > 100 | > 100 | 51.6 µM | > 100 | > 100 | > 100 µM | > 100 |  |  |  |  |  |  |  |  |  |  |  | 
C[C@@]1([C@H](OC(=O)c2ccccc2)C(N)=O)CO1 | 24.5 µM | 55.7 | > 100 | 50 µM | 93.6 | 31.5 | 58.6 µM |  | 4.21 | 21.6 | 27 | 19.4 | 30.5 | 10.7 | 22.8 | 50.6 | 17.5 | 26.2 | > 100 µM | 
COc1cc([N+](=O)[O-])c(OC)cc1-c1nc2sc(C)c(C)n2c1/C(N)=N/C(=N)N |  |  | > 100 |  | > 100 | > 100 | > 100 µM | > 100 |  |  | > 100 |  | 2.33 | > 100 | > 100 | > 100 | > 100 | 59.3 | > 100 µM | > 100
O=C1[C@@H]2C(c3ccc(Br)cc3)=NO[C@@H]2C(=O)N1c1ccc(Cc2ccc(N3C(=O)[C@H]4C(c5ccc(Br)cc5)=NO[C@H]4C3=O)cc2)cc1 |  | > 3.48 | > 40 | > 3.48 µM | > 3.48 | > 40 | > 40 µM | > 3.48 |  |  | > 40 |  |  | > 40 | > 40 | > 40 |  | > 40 | > 40 µM | 
Cc1ccc(NC(=O)CCCC(=O)CC(=O)c2ccc(Br)cc2)cc1 | > 100 µM | > 100 | > 100 | > 100 µM | > 100 | > 100 | > 100 µM |  |  |  |  |  |  |  |  | > 100 |  |  | > 100 µM | 
CN=c1ss/c(=N\C(=S)N(C)C)n1C |  | > 100 | > 100 | > 100 µM | > 100 | > 100 | > 100 µM | > 100 |  |  |  |  |  |  |  | > 100 |  |  | > 100 µM | 
O=S1(=O)N2CN3CN(C2)CN1C3 | > 79.1 µM and 67.5 µM |  | 90.6 | > 87.5 µM and 133 µM | 856 | 571 | 44.4 µM and 76.6 µM | 62.8 | 25.2 |  |  | 31.8 |  |  |  | 69.2 | 26.6 | 33.7 | 56.6 µM and 124 µM | 
O=C(O)C1=C/C(=C(/c2ccccc2)c2cc(C(=O)O)c(O)c3ccccc23)c2ccccc2C1=O |  | > 100 | > 100 | > 100 µM | > 100 | > 100 | > 100 µM |  |  |  |  |  |  |  |  | > 100 |  |  | > 100 µM | 
CC(C)(C)c1cc(C(=O)Nc2ccccc2C(=O)NCCN)cc(C(C)(C)C)c1 | 2.98 µM | 3.5 | 3.59 | 3.62 µM | 3.75 | 5.56 | 3.25 µM | 4.46 | 1.53 | 1.89 | 1.84 | 1.86 | 1.93 | 2.21 | 1.68 | 5.08 | 1.8 |  |  | 2.15
